According to patent US20120165319A1, “INHIBITORS OF INTERLEUKIN-1 BETA CONVERTING ENZYME” (VERTEX PHARMACEUTICALS INCORPORATED, priority 1995, published 2012):
Read-outs that look alike come from different tables or passages of the source.

Experiments:
[1] = tested on: IL-1β, human peripheral blood mononuclear cells (PBMC); assay: PBMC cell assay: IL-1β assay with human PBMC or enriched adherent mononuclear cells, LPS-stimulated; type: cell-based; conditions: Homo sapiens, PBMC
Method in brief: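 Buffy-coat human PBMC at 6×10^6 cells/ml, or adherent monocytes enriched by 1 h adherence (2.5−3.0×10^5 cells/well), are given 5–6 compound dilutions bracketing the ICE Ki (final DMSO 0.1%) plus LPS at a final 5 ng/ml. They are incubated 16–18 hr at 37 °C, 5% CO2, and supernatant mature IL-1β is measured by ELISA, with duplicate cultures and duplicate ELISAs.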

ICE = molecular target: T1, ICE (Homo sapiens, UniProt P29466); assay: Enzyme assay with UV-visible substrate (visible ICE assay, Succinyl-Tyr-Val-Ala-Asp-pNitroanilide); type: biochemical
T1 sequence (P29466 120-297 limits assumed): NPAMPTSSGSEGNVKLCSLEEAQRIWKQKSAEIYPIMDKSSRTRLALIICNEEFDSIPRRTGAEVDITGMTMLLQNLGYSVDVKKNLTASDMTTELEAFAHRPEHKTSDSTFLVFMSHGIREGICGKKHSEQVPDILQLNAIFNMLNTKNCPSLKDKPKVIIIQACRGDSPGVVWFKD
T1 sequence (P29466 317-404 limits assumed): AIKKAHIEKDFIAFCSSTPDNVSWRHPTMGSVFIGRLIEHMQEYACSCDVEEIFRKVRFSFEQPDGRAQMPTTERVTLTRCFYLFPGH
Method in brief: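 Colorimetric caspase-1 activity: 15 min enzyme-inhibitor preincubation (RT), then Suc-Tyr-Val-Ala-Asp-pNA; 405-603 nm kinetics, 20 min, 37° C. Ki from rate fitting.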

[2] = Pharmacokinetic studies in the mouse (i.v. clearance, plasma levels); type: in vivo; conditions: CD-1, plasma, iv, 25 mg/kg, mouse
Procedure: Pharmacokinetic Studies in the Mouse
Sample Preparation and Dosing
Compounds were dissolved in sterile TRIS solution (0.02M or 0.05M) at a concentration of 2.5 mg/ml. Where necessary to ensure a complete solution, the sample was first dissolved in a minimum of dimethylacetamide (maximum of 5% of total solution volume) then diluted with the TRIS solution.
The drug solution was administered to CD-1 mice (Charles River Laboratories—26-31 g) via the tail vein at a dose volume of 10 ml/kg giving a drug dose of 25 mg/kg.
Mice were dosed in groups of 5 for each timepoint (generally from 2 minutes to 2 hours) then at the appropriate time the animals were anaesthetised with halothane and the blood collected into individual heparinized tubes by jugular severance. The blood samples were cooled to 0° C. then the plasma separated and stored at −20° C. until assayed.
Drug concentration in the plasma samples were determined by HPLC analysis with UV or MS (ESP) detection. Reverse phase chromatography was employed using a variety of bonded phases from C1 to C18 with eluents composed of aqueous buffer/acetonitrile mixtures run under isocratic conditions.
Quantitation was by external standard methods with calibration curves constructed by spiking plasma with drug solutions to give concentrations in the range of 0.5 to 50 μg/ml.
Prior to analysis the plasma samples were deproteinated by the addition of acetonitrile, methanol, trichloroacetic acid or perchloric acid followed by centrifugation at 10,000 g for 10 minutes. Sample volumes of 20 μl to 50 μl were injected for analysis.
The drug was dissolved in sterile 0.02M Tris to give a 2.5 mg/ml solution which was administered to […] of 5 male CD-1 mice via the tail vein at a dose of 25 mg/kg. At each of the following timepoints: 2, 5, 10, 15, 20, 30, 45, 60, 90 and 120 minutes a group of animals was anaesthetised and the blood collected into heparinized tubes. After separation the plasma was stored at −20° C. until assayed.
Aliquots of plasma (150 μl) were treated with 5% perchloric acid (5 μl) then mixed by vortexing and allowed to stand for 90 minutes prior to centrifugation. The resulting supernatant was separated and 20 μl was injected for HPLC analysis.
Aliquots of plasma (100 μl) were diluted with acetonitrile (100 μl) then mixed by vortexing for 20 seconds before centrifugation for 10 minutes. The resulting supernatant was separated and 20 μl was injected for HPLC analysis.

[3] = In vivo rat clearance assay; conditions: plasma, iv
Procedure: In Vivo Rat Clearance Assay
Cannulations of the jugular and carotid vessels of rats under anesthesia were performed one day prior to the pharmacokinetic study. M. J. Free, R. A. Jaffee; ‘Cannulation techniques for the collection blood and other bodily fluids’; in: Animal Models; p. 480-495; N. J. Alexander, Ed.; Academic Press; (1978). Drug (10 mg/mL) was administered via the jugular vein in a vehicle usually consisting of: propylene glycol/saline, containing 100 mM sodium bicarbonate in a 1:1 ratio. Animals were dosed with 10-20 mg drug/kg and blood samples were drawn at 0, 2, 5, 7, 10, 15, 20, 30, 60, and 90 minutes from an indwelling carotid catheter. The blood was centrifuged to plasma and stored at −20° C. until analysis. Pharmacokinetic analysis of data was performed by non-linear regression using standard software such as RStrip (MicroMath Software, UT) and/or Pcnonlin (SCI Software, NC) to obtain clearance values.
Rat plasma was extracted with an equal volume of acetonitrile (containing 0.1% TFA). Samples were then centrifuged at approximately 1,000×g and the supernatant analyzed by gradient HPLC. A typical assay procedure is described below.
A standard curve was run at 20, 10, 5, 2 and 1 μg/mL concentrations.

IL-1β, human whole blood = assay: Whole blood assay for IL-1β production; type: cell-based; conditions: Homo sapiens, read-out: Whole human blood IC50
Method in brief: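 Human whole blood collected on Na2EDTA was treated with serially diluted compound in saline and then stimulated with LPS at 5.0 ng/ml final, for 16-18 h at 30 °C, in duplicate or triplicate. Plasma IL-1β was measured by ELISA at 1:200 dilution.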

[4] = tested on: IL-1β production, LPS-challenged mice; assay: In vivo acute assay for efficacy as anti-inflammatory agent: LPS-induced IL-1β production in mice; parameters: species or system mouse; conditions: Mus musculus, po, LPS challenged mice, compound PO, 50 mg/kg, read-out: percent inhibition of IL-1β production
Method in brief: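 CD1 mice (n=6) were challenged with LPS 20 mg/kg IP and given compound IP in olive oil:DMSO:ethanol (90:5:5) 1 h after LPS, or at the time of challenge for some analogs. Blood was taken 7 h after LPS and serum IL-1β was measured by ELISA. Oral gavage at 50 mg/kg was also tested.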

[5] = * = values obtained upon reassay
[6] = 0 h, administered 0 h relative to time of LPS challenge
[7] = 2 h, administered −2 h relative to time of LPS challenge

Row | melting point | Ki (ICE; Table 17) | clearance ([3]; Table 17) | SMILES | IC50 ([1]; Table 17) | further results
1 | 115 to 119 °C | 30 µM |  | O=C[C@H](CC(=O)O)NC(=O)[C@@H]1CCCN2CCC[C@@H](NC(=O)c3ccccc3)C(=O)N12 [Compound 246b, [3S(1S,9R)]3-(9-Benzoylamino-1,2,3,4,7,8,9,10-octahydro-10-oxo-6H-pyridazino[1,2-a][1,2]diazepine-1-carboxamido)-4-oxobutanoic acid] | > 30 µM | clearance ([2]; Table 17): 87 mL/min/kg
2 | 138 to 142 °C | 0.1 µM | 16 mL/min/kg | COc1ccc(C(=O)NN2CCC(=O)N3CCC[C@@H](C(=O)N[C@H](C=O)CC(=O)O)N3C2=O)cc1 [Compound 1052, [3S(4S)]3-[6,10-Dioxo-7-(4-methoxybenzoylamino)-octahydro-6H-pyridazino[1,2-a][1,2,4]triazepine-4-carboxamido]-4-oxobutanoic acid] | 2.5 µM | 
3 | > 300 °C | 0.17 µM | 17 mL/min/kg | O=C[C@H](CC(=O)O)NC(=O)[C@@H]1CCCN2C(=O)CCN(NC(=O)c3ccc(O)cc3)C(=O)N12 [Compound 1056, [3S(4S)]3-[6,10-Dioxo-7-(4-hydroxybenzoylamino)-1,2,3,4,7,8,9,10-octahydro-6H-pyridazino[1,2-a][1,2,4]triazepine-4-carboxamido]-4-oxobutanoic acid] |  | 
4 | 157 to 162 °C | 1.2 µM | 24 mL/min/kg | O=C[C@H](CC(=O)O)NC(=O)[C@@H]1CCCN2C(=O)CCN(NC(=O)Nc3ccccc3)C(=O)N12 [Compound 265f, [3S(4S)]3-[6,10-Dioxo-1,2,3,4,7,8,9,10-octahydro-7-(3-phenylureido)-6H-pyridazino[1,2-a][1,2,4]triazepine-4-carboxamido]-4-oxobutanoic acid] |  | 
5 | 87 to 90 °C |  |  | O=C[C@H](CC(=O)O)NC(=O)[C@@H]1CCCN2CCC[C@H](NC(=O)CCc3ccccc3)C(=O)N12 [Compound 47b, [3S(1S,9S)]3-(Octahydro-10-oxo-9-(3-phenylpropionylamino)-6H-pyridazino-[1,2-a][1,2]diazepine-1-carboxamido)-4-oxobutanoic acid] |  | IC50 (IL-1β, human whole blood; [5]): < 0.6 µM; clearance [2]: 338 mL/min/kg
6 | 142 °C (dec.) |  |  | O=C[C@H](CCC(=O)O)NC(=O)[C@@H]1CCCN2C(=O)CC[C@H](NC(=O)c3ccccc3)C(=O)N12 [Compound 235e, [4S,(1S,9S)]-4-[9-(Benzoylamino)-6,10-dioxo-1,2,3,4,7,8,9,10-octahydro-6H-pyridazino-[1,2-a][1,2]diazepine-1-carboxamido]-5-oxopentanoic acid] |  | IC50 [1, 5]: 4.75 µM; Ki (ICE; Table 5): 0.51 µM; clearance [2]: 36 mL/min/kg
7 | 180 to 186 °C | 0.36 µM | 28 mL/min/kg | O=C[C@H](CC(=O)O)NC(=O)[C@@H]1CCCN2C(=O)CCN(NC(=O)Cc3ccccc3)C(=O)N12 [Compound 1095, [3S(4S)]3-(6,10-Dioxo-1,2,3,4,7,8,9,10-octahydro-7-phenylacetylamino-6H-pyridazino[1,2-a][1,2,4]triazepine-4-carboxamido)-4-oxobutanoic acid] | 6 µM | 
8 | 90 to 105 °C |  | 50 mL/min/kg | COC(=O)N[C@H]1CCC(=O)N2CCC[C@@H](C(=O)N[C@@H](CC(=O)O)C(=O)COc3cccnc3)N2C1=O [Compound 283c, [3S(1S,9S)]3-[6,10-Dioxo-9-(methoxycarbonylamino)-1,2,3,4,7,8,9,10-octahydro-6H-pyridazino[1,2-a][1,2]diazepine-1-carboxamido]-4-oxo-5-(3-pyridinyloxy)pentanoic acid] | 4 µM | 
9 | 105 to 130 °C |  | 86 mL/min/kg | COC(=O)N[C@H]1CCC(=O)N2CCC[C@@H](C(=O)N[C@@H](CC(=O)O)C(=O)CSc3nnnn3-c3ccccc3)N2C1=O [Compound 280c, [3S(1S,9S)]3-[6,10-Dioxo-9-(methoxycarbonylamino)-1,2,3,4,7,8,9,10-octahydro-6H-pyridazino[1,2-a][1,2]diazepine-1-carboxamido]-4-oxo-5-[5-(1-phenyltetrazolyl)-thio]pentanoic acid] | 10 µM | 

Row | SMILES | melting point | Ki (ICE; Table 17) | clearance ([3]; Table 17) | IC50 ([1]; Table 17) | further results
10 | O=C[C@H](CC(=O)O)NC(=O)[C@@H]1CCCN2C(=O)CC[C@H](NC(=O)c3ccc(O)cc3)C(=O)N12 [Compound 456] | > 260 °C |  |  |  | clearance ([3]; 10-20 mg/kg): 12.7 mL/min/kg; inhibition at 50 mg/kg [4, 6]: 69%; inhibition at 50 mg/kg ([4]; 1 h, administered +1 h relative to time of LPS challenge): 56%; inhibition at 50 mg/kg [4, 7]: 41%; Ki (ICE; Table 5): 0.0045 µM
11 | O=C1C[C@H](NC(=O)[C@@H]2CCCN3C(=O)CC[C@H](NC(=O)c4ccccc4)C(=O)N23)C(OC2CCCC2)O1 (stereo partly drawn) [Compound 2100l, [1S,9S(2RS,3S)]9-Benzamido-N-(2-cyclopentyloxy-5-oxo-tetrahydrofuran-3-yl)-6,10-dioxo-1,2,3,4,7,8,9,10-octahydro-6H-pyridazino[1,2-a][1,2]diazepine-1-carboxamide] | 172 to 180 °C |  |  | 0.75 µM | inhibition at 50 mg/kg [4, 6]: 28%; inhibition at 50 mg/kg [4, 7]: 52%; IC50 (IL-1β, human whole blood; Table 17): 2.2 µM
